Measurements published in PubChem BioAssay (NCI).
Several values for one entry are separate records, joined by “and”; a condition that tells them apart may be missing. Equal values may be shown once.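 48-hour exposure; five concentrations; linearly interpolated endpoints. The concentration for 50% growth inhibition is given as GI50. TGI denotes the concentration required for complete inhibition of growth.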

Key:
Assay in all cases: inhibition of tumour cell growth, NCI panel, 48 h
A498 renal = test system: A498 renal
HOP-62 NSCLC = test system: HOP-62 NSCLC
PC-3 prostate = test system: PC-3 prostate
786-0 renal = test system: 786-0 renal
SF-268 CNS = test system: SF-268 CNS
HCC-2998 colon = test system: HCC-2998 colon
MALME-3M melanoma = test system: MALME-3M melanoma

| Compound | GI50 (A498 renal) [µM] | TGI (A498 renal) | GI50 (HOP-62 NSCLC) [µM] | TGI (HOP-62 NSCLC) | GI50 (PC-3 prostate) [µM] | TGI (PC-3 prostate) | GI50 (786-0 renal) [µM] | TGI (786-0 renal) | GI50 (SF-268 CNS) [µM] | TGI (SF-268 CNS) [µM] | GI50 (HCC-2998 colon) [µM] | TGI (HCC-2998 colon) | GI50 (MALME-3M melanoma) [µM] | TGI (MALME-3M melanoma) |
| --- | --- | --- | --- | --- | --- | --- | --- | --- | --- | --- | --- | --- | --- | --- |
| Cc1ccccc1/C=C1\CN(C(=O)OC(C)(C)C)C/C(=C\c2ccccc2C)C1=O | 3 | 6.24 µM | 3.43 | 11.3 µM | 2.5 | 7.69 µM | 1.84 | 3.52 µM | 2.95 | 10.6 | 1.94 | 3.78 µM | 1.81 | 3.6 µM |
| Cc1nc2cc(N)c(Cl)cc2[nH]1 |  | > 100 µM |  | > 100 µM |  | > 100 µM |  | > 100 µM |  | > 100 |  |  |  | > 100 µM |
| C=C(CN1CCN(c2cccc(F)c2)CC1)c1ccc(C(=O)Nc2ccccc2N)cc1 | 2.12 | 9.08 µM | 0.83 | 17.5 µM | 0.689 | 4.03 µM | 1.84 | 13 µM | 2.3 | > 100 | 2.98 | 11 µM | 1.83 | 68 µM |
| CCc1ccc(Nc2cc(C)nc3nc(C)nn23)cc1 | 0.533 | 78.7 µM | > 100 | > 100 µM | 53.3 | > 100 µM | > 100 | > 100 µM | 69.1 | > 100 | > 100 | > 100 µM | 69.5 | > 100 µM |
| Cc1ccc(NC(=O)c2nc(S(C)=O)oc2-c2ccc(F)cc2)cc1Nc1nccc(-c2cccnc2)n1 (centres undefined) | 7.19 | 20.2 µM | 2.95 | 8.04 µM | 2.25 | 4.85 µM | 2 | 3.55 µM | 2.15 | 4.61 | 3.91 | 13 µM | 1.34 | 2.89 µM |
| Nc1c(C(=O)Nc2ccccc2)sc2nc3c(cc12)CCCC3 | 0.227 | 30 µM | 0.781 | > 67.6 µM | 0.703 | > 71.2 µM | 0.706 | 55 µM | 2.2 | > 100 | 1.99 | > 37.2 µM | 0.608 | 95.2 µM |
| COC(=O)C1C2CCCN2OC1(C)CO (centres undefined) |  | > 100 µM |  | > 100 µM |  | > 100 µM |  | > 100 µM |  | > 100 |  |  |  |  |
| S=C(N/N=C(/c1ccccc1)c1ccccn1)Nc1cccc(Cl)c1 | 0.195 | 1.72 µM and 6.29 µM | 2.26 | 4.18 µM and 17.7 µM | 0.0264 | 7.05 µM and 6.71 µM | 0.675 | 2.51 µM and 5.56 µM | 2.33 | 16.6 | 2 | 5.04 µM and 5.92 µM | 0.0169 | 2.22 µM and 5.37 µM |
| O=C1OC2C(O)C(=O)OC2C1O (centres undefined) |  | > 100 µM |  | > 100 µM |  | > 100 µM |  | > 100 µM |  | > 100 |  | > 100 µM |  | > 100 µM |
| COc1cc(NC(N)=NCCC(C)(C)c2ccc(C(F)(F)F)cc2)ncc1C#N | 1.88 | 3.69 µM | 1.78 | 3.25 µM | 1.55 | 3.17 µM | 1.71 | 3.14 µM | 1.97 | 4.27 | 1.89 | 3.34 µM | 1.82 | 3.47 µM |
| O=CC1(C2(C=O)c3ccccc3-c3ccccc32)c2ccccc2-c2ccccc21 | 2.33 | 5.36 µM | 6.17 | 10.4 µM | 1.44 | 4.65 µM | 2.16 | 5.34 µM | 2.37 | 6.03 | > 100 | > 100 µM | 2.68 | 5.94 µM |
| CNC1C(OC2C(OC3C(O)C(O)C(O)C(O)C3O)OC(C)C2(O)CO)OC(CO)C(O)C1O (centres undefined) (tested in a mixture with another compound) |  | > 100 µM |  | > 100 µM |  | > 100 µM |  | > 100 µM |  | > 100 |  | > 100 µM |  | > 100 µM |
| Cc1nn(-c2ccc(Br)cc2)c(C)c1CC(=O)c1cc(O)ccc1O | 7.18 | 47.3 µM |  |  | 9.97 | > 50 µM | 20.5 | > 50 µM | 5.6 | 17.6 |  |  |  |  |
| CCCCCCCCCC(CCCC(O)CC(=O)O)OC1OC(COC2OC(C)C(O)C(O)C2O)C(O)C(O)C1OC1OC(CO)C(O)C(O)C1OC1OC(C)C(O)C(O)C1O (centres undefined) | > 40 | > 40 µM | > 40 | > 40 µM | > 40 | > 40 µM | > 40 | > 40 µM | > 40 | > 40 | > 40 | > 40 µM | > 40 | > 40 µM |
| Oc1cc2ccccc2cc1-c1n[nH]c(=S)n1-c1ccc(Cl)cc1 |  |  |  |  | 15.7 | > 100 µM | 16.1 | 49.8 µM | 6.46 | 32.9 |  |  | 8.85 | > 100 µM |
| CN1CCCCC1CCN1c2ccccc2Sc2ccc(S(C)=O)cc21 (centres undefined) |  | > 100 µM |  | > 100 µM |  | > 100 µM |  | > 100 µM |  | > 100 |  |  |  | > 100 µM |
| O=C1C(Cl)=C(Nc2cccc(O)c2)C(=O)N1c1cccc(Cl)c1Cl |  |  | 15.9 | 62.9 µM | 6.92 | 28.6 µM | 18.2 | 63.2 µM | 11.7 | 28.8 |  |  | 11.7 | 53.9 µM |
| CC([O-])C(=O)[O-].NCC1CCC1CN.[Pt+4] (centres undefined) |  |  | > 10 | > 10 µM | > 10 | > 10 µM | > 10 | > 10 µM | > 10 | > 10 | > 10 | > 10 µM | > 10 | > 10 µM |
| C/C(=N\NC(=O)c1ccncc1)c1ccc(O)cc1O | 8.61 | > 100 µM | 3.93 | > 100 µM | 10.9 | > 100 µM | 5.84 | > 100 µM | 2.19 | > 100 | 3.59 | > 100 µM |  |  |
| CC(C)Oc1ccc(C(=O)N[C@H](CNC(=O)CN(C)C)Cc2ccc(-c3cn4cccc([C@H](C)O)c4n3)cc2)cc1Cl | 0.213 | 13.9 µM |  |  | 0.0664 | 21.4 µM | 0.0578 | 17.8 µM | 0.0727 | 20.9 | 0.0695 | 17.3 µM | 0.078 | 16.3 µM |
